Data reported in PMC8232704, “Hydrophobic Tagging-Mediated Degradation of Transcription Coactivator SRC-1” (International Journal of Molecular Sciences, 2021).
Bridge positions count the residues as written; N and C are the ends. Square brackets hold non-standard residues; d marks the D form. Peptide text beside a SMILES is read from it. N(1-adamantyl)Gly = O=C(O)CNC12CC3CC(CC(C3)C1)C2; Cha = N[C@@H](CC1CCCCC1)C(=O)O; S5 = C=CCCC[C@](C)(N)C(=O)O; PEG2 = NCCOCCOCCC(=O)O; PEG1 = NCCOCCC(=O)O; Ahx = NCCCCCC(=O)O; Ava = NCCCCC(=O)O; GABA = NCCCC(=O)O

How the values were obtained:
[1] = Circular dichroism (CD), calculated helicity; type: physicochemical; conditions: 50 μM peptide in 30% PBS (pH 7.4) and 70% acetonitrile, calculated from CD spectra
Procedure: Lyophilized compounds (YL2 and YL2-HyT1 through YL2-HyT6) were dissolved in 30% PBS (pH 7.4) and 70% acetonitrile solution to a final concentration of 50 μM. CD spectra were measured with a Jasco J-815 CD spectropolarimeter using a quartz cuvette (2 mm path length). These spectra were averages of five successive accumulations with a scan rate of 100 nm/min. Raw data were converted in terms of per-residue molar ellipticity (deg·cm^2·dmol^−1·residue^−1) as calculated per mole of amide groups present and normalized by the molar concentration of peptides. Smoothing and correction of background spectra were performed with Origin Pro 8.0 (OriginLab Corporation, Northampton, MA, USA). Then α-helical propensities of YL2 and YL2-HyT1 through YL2-HyT6 were calculated as previously reported.

[2] = system: CSF-1 mRNA in MDA-MB-231 cells; assay: RT-qPCR of CSF-1 mRNA; type: cell-based, human; conditions: 18 h, RT-qPCR normalized to 18S
Procedure: (§1) Quantitative real-time PCR was performed for CSF-1, E-cadherin, and 18S (as a reference gene) mRNAs. MDA-MB-231 cells (1.2 × 10^5 cells/well) were seeded into a 12-well plate and incubated at 37 °C with 5% CO2 for 24 h. These cells were treated with indicated compounds (YL2, adamantane, ND1-YL2, or YL2-HyT6) for 18 h in Opti-MEM medium. After cells were washed with cold DPBS, mRNAs were isolated from these cells using an AccuPrep Universal RNA extraction kit (Bioneer, Daejeon, Korea). Then 1.5 µg of mRNAs were reverse-transcribed using AccuPower RocketScript Cycle RT PreMix (Bioneer) to generate complementary DNAs. RT-qPCR for CSF-1, E-cadherin, and 18S was performed with a StepOnePlus Real-Time PCR System (Applied Biosystems, Waltham, MA, USA) and SYBR Green mix (Applied Biosystems) according to the manufacturer’s instructions with gene-specific primers (Table 1).

[3] = system: E-cadherin mRNA in MDA-MB-231 cells; assay: RT-qPCR of E-cadherin mRNA; type: cell-based, human; conditions: 18 h, RT-qPCR normalized to 18S
Procedure: as §1

[4] = target: SRC-1; conditions: in vitro binding activity; cited from earlier work
Excerpt: The SRC-1 degrader ND1-YL2 is a chimeric molecule composed of a ligand (YL2) for SRC-1 [31] and a UBR E3 ligase binder (Figure 2). […] ND1-YL2 was generated by conjugating a tetrapeptide RLAA, the N-degron peptide as a binder for UBR. Thus, this bifunctional molecule enables the recruitment of SRC-1 to UBR protein, thereby promoting the formation of a ternary complex for polyubiquitination and proteasomal degradation of SRC-1.

[5] = system: SRC-1; conditions: stapled peptide lacking the hydrophobic tag; cited from earlier work
Procedure: Cellular levels of SRC-1 were analyzed at various time points (12, 18, and 24 h) by immunoblotting.

[6] = parameters: method as in PMID 29090910; conditions: compared with the corresponding native peptide sequence; cited from earlier work
[7] = parameters: method as in PMID 29090910; conditions: cited from earlier work
[8] = target: T1, PAS-B domain of human SRC-1 (residues 257–385) (Homo sapiens, UniProt Q15788); assay: Competitive fluorescence polarization (FP) assay, fluorescein-labeled STAT-6 peptide binding to SRC-1; conditions: 100 nM fluorescein-labeled 15-mer STAT-6 peptide, 1 μM PAS-B domain of SRC-1, HEPES pH 7.4, SD from three independent experiments
T1 construct: PAS-B domain of human SRC-1 (residues 257–385); His6; made in house; host or cells: Rosetta E. coli
T1 sequence (Q15788 257-385): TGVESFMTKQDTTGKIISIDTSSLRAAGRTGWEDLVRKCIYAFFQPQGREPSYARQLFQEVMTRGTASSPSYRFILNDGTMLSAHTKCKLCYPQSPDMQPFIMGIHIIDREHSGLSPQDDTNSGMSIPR
Procedure: A plasmid expressing the PAS-B domain of human SRC-1 (residues 257–385) tagged with His6 was provided by John A. Robinson (University of Zürich at Switzerland). It was transformed into Rosetta E. coli cells. SRC-1 protein purification was performed as described previously.
After incubating 100 nM of fluorescein-labeled 15-mer STAT-6 peptide with 1 μM of PAS-B domain of SRC-1 in a binding buffer (50 mM HEPES pH 7.4, 150 mM NaCl, 3.4 mM EDTA, and 0.01% Tween 20) in a black Greiner 384-well plate for 30 min, indicated concentrations of YL2 and YL2-HyT1 through YL2-HyT6 were added to each well. After incubation for another 1.5 h, fluorescence polarization was measured on a Tecan Infinite F200 Pro microplate reader (excitation wavelength: 485 nm, emission wavelength: 535 nm). The Ki values of the compounds in the competition assay were determined using the following equation [43]. (1) Ki=[I]50/[L]50/KD+[P]0/KD+1 where [I]50 is the concentration of the free inhibitor at 50% inhibition, KD is the dissociation constant of the protein–ligand complex, [L]50 is the concentration of the free labeled ligand at 50% inhibition, and [P]0 is the concentration of the free protein at 0% inhibition.

[9] = target: T2, SRC-1 in MDA-MB-231 cells (Homo sapiens, UniProt Q15788); assay: Immunoblot analysis of cellular SRC-1 levels (SRC-1 degradation); type: cell-based; conditions: MDA-MB-231 cells, 18 h; for SRC-1 (%): normalized to GAPDH and DMSO controls
T2 construct: endogenous in cells; host or cells: MDA-MB-231
Procedure: MDA-MB-231 and HEK293T cells were cultured in a medium containing Dulbecco’s modified eagle medium (DMEM) supplemented with 1% penicillin–streptomycin (PS) and 10% FBS with 5% CO2 at 37 °C.
MDA-MB-231 cells were seeded into 6-well pates (Corning, 3506) at a density of 6 × 10^5 cell per well. After incubation at 37 °C for 24 h, cells were treated with synthesized compounds in Opti-MEM medium for 12, 18, or 24 h. Cells were washed twice with cold Dulbecco’s phosphate-buffered saline (DPBS) prior to cell lysis using a cell lysis buffer (1% Triton X-100, 150 mM NaCl, 50 mM Tris-HCl pH 7.6, 0.1% SDS, 0.5% sodium deoxycholate, and 1 × protease inhibitor cocktail) on ice. Cell lysates were centrifuged at 13,000 rpm at 4 °C for 15 min. The supernatant was collected, and protein concentration was determined using Pierce^TM 660nm protein assay. A 6 × SDS loading buffer was added to the cell lysate and incubated at 95 °C for 5 min. The same amount of protein was subjected to SDS-PAGE and transferred to PVDF membranes. After blocking membranes with 5% skim milk in TBST (Tris-buffered saline with 0.05% Tween 20), membranes were incubated with a primary antibody at 4 °C overnight. Membranes were then incubated with HRP-linked secondary antibody at rt for 1 h and developed with Pico ECL solution. In MG-132 and 17-AAG treatment experiments, MDA-MB-231 cells were cotreated with synthesized compounds and MG-132 (5 μM) or 17-AAG (1 μM) at 37 °C for 18 h.

T2 sequence (Q15788 whole entry): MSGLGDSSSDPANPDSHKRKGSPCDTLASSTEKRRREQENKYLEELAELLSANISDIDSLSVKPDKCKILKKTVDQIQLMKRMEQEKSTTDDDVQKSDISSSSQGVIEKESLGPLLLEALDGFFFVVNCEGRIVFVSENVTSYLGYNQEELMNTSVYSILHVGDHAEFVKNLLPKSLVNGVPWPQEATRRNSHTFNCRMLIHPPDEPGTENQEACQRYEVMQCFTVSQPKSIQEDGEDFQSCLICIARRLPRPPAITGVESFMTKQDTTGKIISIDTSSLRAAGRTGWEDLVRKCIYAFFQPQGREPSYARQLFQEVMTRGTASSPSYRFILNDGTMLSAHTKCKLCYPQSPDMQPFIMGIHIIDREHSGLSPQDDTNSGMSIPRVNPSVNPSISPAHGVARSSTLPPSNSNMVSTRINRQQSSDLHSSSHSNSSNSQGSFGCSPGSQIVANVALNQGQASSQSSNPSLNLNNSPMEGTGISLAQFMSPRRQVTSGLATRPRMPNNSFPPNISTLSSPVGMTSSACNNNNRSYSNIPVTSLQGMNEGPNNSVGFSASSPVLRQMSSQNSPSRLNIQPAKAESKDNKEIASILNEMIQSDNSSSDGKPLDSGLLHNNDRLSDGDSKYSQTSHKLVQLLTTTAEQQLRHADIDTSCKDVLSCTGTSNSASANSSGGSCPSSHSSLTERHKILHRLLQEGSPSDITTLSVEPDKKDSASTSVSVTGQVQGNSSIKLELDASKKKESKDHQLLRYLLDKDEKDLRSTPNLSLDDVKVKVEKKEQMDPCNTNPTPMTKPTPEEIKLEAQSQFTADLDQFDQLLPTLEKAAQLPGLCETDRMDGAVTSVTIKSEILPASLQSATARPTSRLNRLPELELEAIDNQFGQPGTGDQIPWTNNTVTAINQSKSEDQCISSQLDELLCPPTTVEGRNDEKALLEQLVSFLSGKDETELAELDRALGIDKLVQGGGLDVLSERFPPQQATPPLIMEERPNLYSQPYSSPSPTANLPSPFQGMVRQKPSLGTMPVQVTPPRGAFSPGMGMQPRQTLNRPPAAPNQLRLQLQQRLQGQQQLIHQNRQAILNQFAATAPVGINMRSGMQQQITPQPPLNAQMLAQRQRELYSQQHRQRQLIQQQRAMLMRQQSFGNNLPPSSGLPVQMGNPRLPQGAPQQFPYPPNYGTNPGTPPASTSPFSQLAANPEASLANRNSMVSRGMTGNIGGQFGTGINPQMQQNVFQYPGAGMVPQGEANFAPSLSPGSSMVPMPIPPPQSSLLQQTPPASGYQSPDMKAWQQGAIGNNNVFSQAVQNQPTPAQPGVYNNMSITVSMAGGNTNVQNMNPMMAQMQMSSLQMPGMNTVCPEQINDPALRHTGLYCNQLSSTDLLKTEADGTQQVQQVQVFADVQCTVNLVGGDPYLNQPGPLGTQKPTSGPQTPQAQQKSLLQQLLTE

| Compound | Helicity (%) [1] [%] | CSF-1 mRNA expression level [2] | E-cadherin mRNA expression level [3] | Ki [4] [nM] | SRC-1 degradation [5] | Proteolytic resistance [6] | Cell penetration ability [7] | Ki [8] [nM] | SRC-1 (%) ([9]; 10 μM compound) | SRC-1 (%) ([9]; 20 μM compound) | SRC-1 (%) ([9]; 50 μM compound) | SRC-1 degradation (immunoblot) ([9]; 20 μM) |
| --- | --- | --- | --- | --- | --- | --- | --- | --- | --- | --- | --- | --- |
| CC(C)C[C@@H]1NC(=O)[C@H](CCCCN)NC(=O)[C@@](C)(NC(=O)[C@H](CC(C)C)NC(=O)[C@H](CC(=O)O)NC(=O)[C@H](CCC(N)=O)NC(=O)[C@H](CCC(=O)O)NC(=O)[C@@H](NC(=O)[C@@H]2CCCN2C(=O)[C@@H]2CCCN2C(=O)[C@H](CC(C)C)NC(=O)[C@@H](N)CC(C)C)[C@@H](C)O)CCC/C=C\CCC[C@@](C)(C(=O)N[C@@H](Cc2ccc(O)cc2)C(N)=O)NC(=O)[C@H](CC2CCCCC2)NC1=O [YL2] (H-LLPPTEQDL[S5]KL[Cha][S5]Y-NH2; staple (Z) 10-14; N-terminus assumed) | 32.5 | no effect | no effect | 140 | unable to induce SRC-1 degradation | increased proteolytic resistance | reasonable cell penetration ability |  |  |  |  |  |
| CC(C)C[C@H](NC(=O)CCCCCNC(=O)CNC12CC3CC(CC(C3)C1)C2)C(=O)N[C@@H](CC(C)C)C(=O)N1CCC[C@H]1C(=O)N1CCC[C@H]1C(=O)N[C@H](C(=O)N[C@@H](CCC(=O)O)C(=O)N[C@@H](CCC(N)=O)C(=O)N[C@@H](CC(=O)O)C(=O)N[C@@H](CC(C)C)C(=O)N[C@@]1(C)CCC/C=C\CCC[C@@](C)(C(=O)N[C@@H](Cc2ccc(O)cc2)C(N)=O)NC(=O)[C@H](CC2CCCCC2)NC(=O)[C@H](CC(C)C)NC(=O)[C@H](CCCCN)NC1=O)[C@@H](C)O [YL2-HyT3] (H-[N(1-adamantyl)Gly][Ahx]LLPPTEQDL[S5]KL[Cha][S5]Y-NH2; staple (Z) 12-16; C-terminus assumed) | 24.9 |  |  |  |  |  |  | 681 ± 54 | 73 | 58 | 50 |  |
| CC(C)C[C@H](NC(=O)CCOCCOCCNC(=O)CNC12CC3CC(CC(C3)C1)C2)C(=O)N[C@@H](CC(C)C)C(=O)N1CCC[C@H]1C(=O)N1CCC[C@H]1C(=O)N[C@H](C(=O)N[C@@H](CCC(=O)O)C(=O)N[C@@H](CCC(N)=O)C(=O)N[C@@H](CC(=O)O)C(=O)N[C@@H](CC(C)C)C(=O)N[C@@]1(C)CCC/C=C\CCC[C@@](C)(C(=O)N[C@@H](Cc2ccc(O)cc2)C(N)=O)NC(=O)[C@H](CC2CCCCC2)NC(=O)[C@H](CC(C)C)NC(=O)[C@H](CCCCN)NC1=O)[C@@H](C)O [YL2-HyT5] (H-[N(1-adamantyl)Gly][PEG2]LLPPTEQDL[S5]KL[Cha][S5]Y-NH2; staple (Z) 12-16; C-terminus assumed) | 27.2 |  |  |  |  |  |  | 549 ± 17 | 78 | 95 | 57 |  |
| CC(C)C[C@H](NC(=O)CCOCCNC(=O)CNC12CC3CC(CC(C3)C1)C2)C(=O)N[C@@H](CC(C)C)C(=O)N1CCC[C@H]1C(=O)N1CCC[C@H]1C(=O)N[C@H](C(=O)N[C@@H](CCC(=O)O)C(=O)N[C@@H](CCC(N)=O)C(=O)N[C@@H](CC(=O)O)C(=O)N[C@@H](CC(C)C)C(=O)N[C@@]1(C)CCC/C=C\CCC[C@@](C)(C(=O)N[C@@H](Cc2ccc(O)cc2)C(N)=O)NC(=O)[C@H](CC2CCCCC2)NC(=O)[C@H](CC(C)C)NC(=O)[C@H](CCCCN)NC1=O)[C@@H](C)O [YL2-HyT4] (H-[N(1-adamantyl)Gly][PEG1]LLPPTEQDL[S5]KL[Cha][S5]Y-NH2; staple (Z) 12-16; C-terminus assumed) | 29.9 |  |  |  |  |  |  | 484 ± 52 | 83 | 53 | 70 |  |
| CC(C)C[C@H](NC(=O)CCCNC(=O)CNC12CC3CC(CC(C3)C1)C2)C(=O)N[C@@H](CC(C)C)C(=O)N1CCC[C@H]1C(=O)N1CCC[C@H]1C(=O)N[C@H](C(=O)N[C@@H](CCC(=O)O)C(=O)N[C@@H](CCC(N)=O)C(=O)N[C@@H](CC(=O)O)C(=O)N[C@@H](CC(C)C)C(=O)N[C@@]1(C)CCC/C=C\CCC[C@@](C)(C(=O)N[C@@H](Cc2ccc(O)cc2)C(N)=O)NC(=O)[C@H](CC2CCCCC2)NC(=O)[C@H](CC(C)C)NC(=O)[C@H](CCCCN)NC1=O)[C@@H](C)O [YL2-HyT1] (H-[N(1-adamantyl)Gly][GABA]LLPPTEQDL[S5]KL[Cha][S5]Y-NH2; staple (Z) 12-16; C-terminus assumed) | 24.1 |  |  |  |  |  |  | 1080 ± 32 | 98 | 99 | 91 |  |
| CC(C)C[C@H](NC(=O)CCCCNC(=O)CNC12CC3CC(CC(C3)C1)C2)C(=O)N[C@@H](CC(C)C)C(=O)N1CCC[C@H]1C(=O)N1CCC[C@H]1C(=O)N[C@H](C(=O)N[C@@H](CCC(=O)O)C(=O)N[C@@H](CCC(N)=O)C(=O)N[C@@H](CC(=O)O)C(=O)N[C@@H](CC(C)C)C(=O)N[C@@]1(C)CCC/C=C\CCC[C@@](C)(C(=O)N[C@@H](Cc2ccc(O)cc2)C(N)=O)NC(=O)[C@H](CC2CCCCC2)NC(=O)[C@H](CC(C)C)NC(=O)[C@H](CCCCN)NC1=O)[C@@H](C)O [YL2-HyT2] (H-[N(1-adamantyl)Gly][Ava]LLPPTEQDL[S5]KL[Cha][S5]Y-NH2; staple (Z) 12-16; C-terminus assumed) | 18.7 |  |  |  |  |  |  | 1520 ± 87 | 92 | 85 | 66 |  |
| C1C2CC3CC1CC(C2)C3 [adamantane] |  | no effect | no effect |  |  |  |  |  |  |  |  | no effect |
